Reference: patent US9096500B2, “Acyl sulfonamide compounds” (Pfizer Limited, priority 2010, dated 2015)
pIC50: −log10 of the molar value. Counter-ions that a name gives are not always drawn.

target: T1, Nav1.7 (or SCN9A) channel (Homo sapiens, UniProt Q15858); experiment: Nav1.7 (hSCN9A) electrophysiology assay, PatchXpress platform; assay type: cell-based; conditions: estimated IC50 from single point electrophysiology data, HEK cells stably expressing hSCN9A, held at V1/2 of inactivation, read-out: Nav1.7 EIC50
T1 construct: expressed in transfected cells
T1 sequence (Q15858 whole entry): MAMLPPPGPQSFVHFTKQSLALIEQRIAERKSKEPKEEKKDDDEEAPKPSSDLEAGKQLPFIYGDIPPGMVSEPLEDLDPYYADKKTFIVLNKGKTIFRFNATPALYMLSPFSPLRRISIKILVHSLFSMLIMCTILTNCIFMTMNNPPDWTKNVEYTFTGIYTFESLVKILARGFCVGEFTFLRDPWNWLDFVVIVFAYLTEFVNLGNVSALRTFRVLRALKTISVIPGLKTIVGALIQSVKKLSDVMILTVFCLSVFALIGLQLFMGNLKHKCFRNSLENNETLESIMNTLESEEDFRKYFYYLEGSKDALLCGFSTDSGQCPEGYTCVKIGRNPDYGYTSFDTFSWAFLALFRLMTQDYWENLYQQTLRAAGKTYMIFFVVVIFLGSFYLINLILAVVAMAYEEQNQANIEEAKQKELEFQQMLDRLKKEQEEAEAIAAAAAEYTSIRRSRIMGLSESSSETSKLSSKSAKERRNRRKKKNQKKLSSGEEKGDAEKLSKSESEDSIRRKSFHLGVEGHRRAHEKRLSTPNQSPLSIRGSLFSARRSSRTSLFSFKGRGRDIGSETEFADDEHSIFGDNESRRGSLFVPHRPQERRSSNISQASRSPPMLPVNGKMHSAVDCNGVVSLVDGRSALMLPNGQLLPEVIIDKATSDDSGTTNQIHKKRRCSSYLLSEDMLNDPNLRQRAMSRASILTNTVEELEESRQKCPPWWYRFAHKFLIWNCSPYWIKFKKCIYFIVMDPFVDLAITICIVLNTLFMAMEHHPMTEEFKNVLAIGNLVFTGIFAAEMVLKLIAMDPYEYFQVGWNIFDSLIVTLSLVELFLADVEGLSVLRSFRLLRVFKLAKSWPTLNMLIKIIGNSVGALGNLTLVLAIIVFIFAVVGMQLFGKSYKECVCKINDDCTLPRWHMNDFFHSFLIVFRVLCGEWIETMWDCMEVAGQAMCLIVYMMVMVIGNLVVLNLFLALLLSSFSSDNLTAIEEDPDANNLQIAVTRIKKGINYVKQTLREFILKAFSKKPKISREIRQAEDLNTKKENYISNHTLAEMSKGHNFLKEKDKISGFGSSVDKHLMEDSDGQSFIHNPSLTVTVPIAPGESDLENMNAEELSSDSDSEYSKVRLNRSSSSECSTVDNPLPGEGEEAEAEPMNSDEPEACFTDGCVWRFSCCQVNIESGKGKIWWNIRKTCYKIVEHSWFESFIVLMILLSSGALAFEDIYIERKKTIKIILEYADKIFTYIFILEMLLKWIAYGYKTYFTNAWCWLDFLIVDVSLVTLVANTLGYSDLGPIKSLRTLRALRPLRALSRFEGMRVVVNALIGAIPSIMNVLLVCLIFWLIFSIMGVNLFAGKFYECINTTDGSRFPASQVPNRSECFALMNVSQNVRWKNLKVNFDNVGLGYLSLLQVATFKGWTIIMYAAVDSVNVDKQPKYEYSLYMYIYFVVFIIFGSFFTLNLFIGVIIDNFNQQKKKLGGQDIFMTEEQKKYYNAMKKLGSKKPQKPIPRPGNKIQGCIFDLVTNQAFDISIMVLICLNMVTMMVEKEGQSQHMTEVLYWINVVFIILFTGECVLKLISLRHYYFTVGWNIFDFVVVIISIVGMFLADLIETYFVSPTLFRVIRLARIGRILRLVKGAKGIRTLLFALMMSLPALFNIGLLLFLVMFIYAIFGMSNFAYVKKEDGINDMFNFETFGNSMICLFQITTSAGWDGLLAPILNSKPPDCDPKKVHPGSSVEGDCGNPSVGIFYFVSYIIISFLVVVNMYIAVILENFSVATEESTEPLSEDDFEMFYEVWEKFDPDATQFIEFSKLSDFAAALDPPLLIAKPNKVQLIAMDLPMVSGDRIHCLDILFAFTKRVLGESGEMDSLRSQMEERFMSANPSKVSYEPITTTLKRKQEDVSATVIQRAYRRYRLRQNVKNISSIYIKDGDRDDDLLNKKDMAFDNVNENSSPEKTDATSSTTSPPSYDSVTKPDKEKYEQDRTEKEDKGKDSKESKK
Procedure: The ability of the compounds of formula (I) to block the Nav1.7 (or SCN9A) channel were measured using the assay described below.
Human Embryonic Kidney (HEK) cells were transfected with an hSCN9A construct using lipofectamine reagent (Invitrogen), using standard techniques. Cells stably expressing the hSCN9A constructs were identified by their resistance to G-418 (400 μg/ml). Clones were screened for expression using the whole-cell voltage-clamp technique.
HEK cells stably transfected with hSCN9A were maintained in DMEM medium supplemented with 10% heat-inactivated fetal bovine serum and 400 μg/ml G-418 in an incubator at 37° C. with a humidified atmosphere of 10% CO2. For HTS, cells were harvested from flasks by trypsinization and replated in an appropriate multi-well plate (typically 96 or 384 wells/plate) such that confluence would be achieved within 24 hours of plating. For electrophysiological studies, cells were removed from the culture flask by brief trypsinization and re-plated at low density onto glass cover slips. Cells were typically used for electrophysiological experiments within 24 to 72 hours after plating.
Cover slips containing HEK cells expressing hSCN9A were placed in a bath on the stage of an inverted microscope and perfused (approximately 1 ml/minutes) with extracellular solution of the following composition: 138 mM NaCl, 2 mM CaCl2, 5.4 mM KCl, 1 mM MgCl2, 10 mM glucose, and 10 mM HEPES, pH 7.4, with NaOH. […] The osmolarity of the extracellular and intracellular solutions was 300 mOsm/kg and 295 mOsm/kg, respectively. All recordings were made at room temperature (22-24° C.) using AXOPATCH 200B amplifiers and PCLAMP software (Axon Instruments, Burlingame, Calif.).
hSCN9A currents in HEK cells were measured using the whole-cell configuration of the patch-clamp technique (Hamill et al., 1981). Uncompensated series resistance was typically 2 to 5 mega ohms and >85% series resistance compensation was routinely achieved. […] Current records were acquired at 20 to 50 KHz and filtered at 5 to 10 KHz.
HEK cells stably transfected with hSCN9A were viewed under Hoffman contrast optics and placed in front of an array of flow pipes emitting either control or compound-containing extracellular solutions. All compounds were dissolved in dimethyl sulfoxide to make 10 mM stock solutions, which were then diluted into extracellular solution to attain the final concentrations desired. […] The voltage-dependence of inactivation was determined by applying a series of depolarizing prepulses (8 sec long in 10 mV increments) from a negative holding potential. The voltage was then immediately stepped to 0 mV to assess the magnitude of the sodium current. Currents elicited at 0 mV were plotted as a function of prepulse potential to allow estimation of the voltage at which 50% of the channels were inactivated (midpoint of inactivation or V1/2). Compounds were tested for their ability to inhibit hSCN9A sodium channels by activating the channel with a 20 msec voltage step to 0 mV following an 8 second conditioning prepulse to the empirically determined V1/2. Compound effect (% inhibition) was determined by difference in current amplitude before and after application of test compounds. […] Inhibition values <20% and >80% were excluded from the calculation.
Electrophysiological assays were conducted with PatchXpress 7000 hardware and associated software (Molecular Devices Corp). All assay buffers and solutions were identical to those used in conventional whole-cell voltage clamp experiments described above. hSCN9A cells were grown as above to 50%-80% confluency and harvested by trypsinization. Trypsinized cells were washed and resuspended in extracellular buffer at a concentration of 1×10^6 cells/ml. The onboard liquid handling facility of the PatchXpress was used for dispensing cells and application of test compounds.

pIC50 | SMILES
6.60 | CCc1ccc(OCc2ccc(C(=O)NS(C)(=O)=O)cc2OC)cc1 [Example 42, 4-[(4-Ethylphenoxy)methyl]-3-methoxy-N-(methylsulfonyl)benzamide diethylamine salt]
5.38 | CCc1ccc(OCc2ccc(C(=O)NS(C)(=O)=O)c(C)c2)cc1 [Example 43, 4-[(4-Ethylphenoxy)methyl]-2-methyl-N-(methylsulfonyl)benzamide diethylamine salt]
5.70 | CS(=O)(=O)NC(=O)c1cc(F)c(COc2ccc(C#N)cc2Cl)cc1F [Example 44, 4-[(2-Chloro-4-cyanophenoxy)methyl]-2,5-difluoro-N-(methylsulfonyl)benzamide]
5.85 | CS(=O)(=O)NC(=O)c1cc(F)c(COc2ccc(Cl)c(C#N)c2)cc1F [Example 47, 4-[(4-Chloro-3-cyanophenoxy)methyl]-2,5-difluoro-N-(methylsulfonyl)benzamide]
5.96 | CS(=O)(=O)NC(=O)c1cc(F)c(COc2ccc(F)c(F)c2)cc1F [Example 48, 4-[(3,4-Difluorophenoxy)methyl]-2,5-difluoro-N-(methylsulfonyl)benzamide]
6.80 | CS(=O)(=O)NC(=O)c1cc(F)c(COc2ccc(Cl)c(F)c2)cc1F [Example 49, 4-[(4-Chloro-3-fluorophenoxy)methyl]-2,5-difluoro-N-(methylsulfonyl)benzamide]
6.66 | CS(=O)(=O)NC(=O)c1cc(F)c(COc2ccc(Cl)c(OC(F)F)c2)cc1F [Example 50, 4-{[4-chloro-3-(difluoromethoxy)phenoxy]methyl}-2,5-difluoro-N-(methylsulfonyl)benzamide]
7.92 | CS(=O)(=O)NC(=O)c1cc(F)c(COc2ccc(Cl)c(OC(F)(F)F)c2)cc1F [Example 51, 4-((4-Chloro-3-(trifluoromethoxy)phenoxy)methyl)-2,5-difluoro-N-(methylsulfonyl)benzamide]
6.89 | CS(=O)(=O)NC(=O)c1cc(F)c(COc2ccc(OC(F)F)c(Cl)c2)cc1F [Example 52, 4-{[3-Chloro-4-(difluoromethoxy)phenoxy]methyl}-2,5-difluoro-N-(methylsulfonyl)benzamide]
7.89 | CS(=O)(=O)NC(=O)c1cc(F)c(COc2ccc(OC(F)(F)F)c(Cl)c2)cc1F [Example 53, 4-((3-Chloro-4-(trifluoromethoxy)phenoxy)methyl)-2,5-difluoro-N-(methylsulfonyl)benzamide]
6.89 | CS(=O)(=O)NC(=O)c1cc(F)c(COc2ccc(Cl)c(C(F)(F)F)c2)cc1F [Example 54, 4-((4-Chloro-3-(trifluoromethyl)phenoxy)methyl)-2,5-difluoro-N-(methylsulfonyl)benzamide]
6.24 | CS(=O)(=O)NC(=O)c1cc(F)c(COc2cc(F)ccc2F)cc1F [Example 55, 4-[(2,5-Difluorophenoxy)methyl]-2,5-difluoro-N-(methylsulfonyl)benzamide]
7.06 | CS(=O)(=O)NC(=O)c1cc(F)c(COc2cccc(OC(F)(F)F)c2)cc1F [Example 56, 4-[(3-Trifluoromethoxy)methyl]-2,5-difluoro-N-(methylsulfonyl)benzamide]
5.96 | CS(=O)(=O)NC(=O)c1cc(F)c(COc2cc(F)c(F)cc2F)cc1F [Example 57, 2,5-Difluoro-N-(methylsulfonyl)-4-[(2,4,5-trifluorophenoxy)methyl]benzamide]
7.68 | CS(=O)(=O)NC(=O)c1cc(Cl)c(OCc2ccc(C(F)(F)F)c(Cl)c2)cc1F [Example 58, 5-Chloro-4-(3-chloro-4-(trifluoromethyl)benzyloxy)-2-fluoro-N-(methylsulfonyl)benzamide]
7.85 | CS(=O)(=O)NC(=O)c1cc(Cl)c(OCc2ccc(Cl)c(C(F)(F)F)c2)cc1F [Example 59, 5-Chloro-4-(4-chloro-3-(trifluoromethyl)benzyloxy)-2-fluoro-N-(methylsulfonyl)benzamide]

pIC50 | SMILES
7.54 | CS(=O)(=O)NC(=O)c1cc(Cl)c(COc2ccc(OC(F)(F)F)c(Cl)c2)cc1F [Example 60, 5-Chloro-4-((3-chloro-4-(trifluoromethoxy)phenoxy)methyl)-2-fluoro-N-(methylsulfonyl)benzamide]
> 6.52 | CS(=O)(=O)NC(=O)c1cc(Cl)c(COc2ccc(OC(F)F)c(Cl)c2)cc1F [Example 61, 5-Chloro-4-{[3-chloro-4-(difluoromethoxy)phenoxy]methyl}-2-fluoro-N-(methylsulfonyl)benzamide]
> 5.52 | CS(=O)(=O)NC(=O)c1cc(Cl)c(COc2ccc(Cl)c(OC(F)F)c2)cc1F [Example 62, 5-Chloro-4-{[4-chloro-3-(difluoromethoxy)phenoxy]methyl}-2-fluoro-N-(methylsulfonyl)benzamide]
7.46 | CS(=O)(=O)NC(=O)c1cc(Cl)c(COc2ccc(Cl)c(OC(F)(F)F)c2)cc1F [Example 63, 5-Chloro-4-{[4-chloro-3-(trifluoromethoxy)phenoxy]methyl}-2-fluoro-N-(methylsulfonyl)benzamide]
< 5.52 | COc1cc(Cl)ccc1OCc1ccc(C(=O)NS(C)(=O)=O)cc1 [Example 64, 4-[(4-Chloro-2-methoxyphenoxy)methyl]-N-(methylsulfonyl)benzamide]
7.10 | CS(=O)(=O)NC(=O)c1ccc(COc2ccc(C(F)(F)F)c(Cl)c2)cc1 [Example 65, 4-{[3-Chloro-4-(trifluoromethyl)phenoxy]methyl}-N-(methylsulfonyl)benzamide]
< 6.00 | COc1cc(COc2cc(F)c(C(=O)NS(C)(=O)=O)cc2F)ccc1Cl [Example 66, 4-(4-Chloro-3-methoxybenzyloxy)-2,5-difluoro-N-(methylsulfonyl)benzamide]
5.04 | CS(=O)(=O)NC(=O)c1cc(F)c(OCc2ccc(Cl)c(C#N)c2)cc1F [Example 67, 4-(4-Chloro-3-cyanobenzyloxy)-2,5-difluoro-N-(methylsulfonyl)benzamide Diethylamine salt]
5.01 | COc1ccc(COc2cc(F)c(C(=O)NS(C)(=O)=O)cc2F)cc1Cl [Example 68, 4-(3-Chloro-4-methoxybenzyloxy)-2,5-difluoro-N-(methylsulfonyl)benzamide]
6.62 | CS(=O)(=O)NC(=O)c1ccc(COc2ccc(Cl)c(Cl)c2)c(C#N)c1 [Example 69, 5-Cyano-4-((3,4-dichlorophenoxy)methyl)-N-(methylsulfonyl)benzamide Diethylamine salt]
6.80 | CS(=O)(=O)NC(=O)c1cc(F)c(OCc2ccc(Cl)c(C(F)(F)F)c2)cc1F [Example 70, 4-(4-Chloro-3-(trifluoromethyl)benzyloxy)-2,5-difluoro-N-(methylsulfonyl) benzamide]
5.41 | COc1ccc(COc2cc(F)c(C(=O)NS(C)(=O)=O)cc2Cl)cc1 [Example 71, 5-chloro-2-fluoro-4-[(4-methoxybenzyl)oxy]-N-(methylsulfonyl)benzamide]
5.19 | CS(=O)(=O)NC(=O)c1ccc(OCc2ccc(Cl)cc2)c(Cl)c1 [Example 73, 3-chloro-4-[(4-chlorobenzyl)oxy]-N-(methylsulfonyl)benzamide]
5.01 | CS(=O)(=O)NC(=O)c1ccc(OCc2cccc(Cl)c2)c(C#N)c1 [Example 74, 4-[(3-chlorobenzyl)oxy]-3-cyano-N-(methylsulfonyl)benzamide]
5.00 | CS(=O)(=O)NC(=O)c1ccc(OCc2ccccc2OC(F)(F)F)c(C#N)c1 [Example 76, 3-cyano-N-(methylsulfonyl)-4-{[2-(trifluoromethoxy)benzyl]oxy}benzamide]
< 5.52 | CS(=O)(=O)NC(=O)c1ccc(OCc2ccc(Cl)cc2)c(C#N)c1 [Example 77, 4-[(4-chlorobenzyl)oxy]-3-cyano-N-(methylsulfonyl)benzamide]
